Assay results as given in PubChem BioAssay AID1845207 (Molecular Pharmacology Branch, DTP, NCI, 2023).
pIC50: −log10 of the molar value.

System: NCI-H1876 tumor spheroid viability
Assay: Anticancer human tumor NCI-H1876 cell line growth inhibition;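 note: spheroids exposed to compounds for seven days before the viability read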;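 for viability, T/C: percent of DMSO vehicle control viability so 100% = vehicle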
Conditions: spheroids with HUVEC and MSC; for pIC50: curve of first compound; for viability, T/C: stronger effect = lower value
In short: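 Complex spheroids of malignant cells with endothelial cells and mesenchymal stem cells; agents alone or combined, from near clinical Cmax (or 10 microM if unknown) down in half-log steps, 0.25% DMSO final.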

[1] = second compound 1 µM, first compound 0.0316 µM
[2] = second compound 1 µM, first compound 0.1 µM
[3] = second compound 1 µM, first compound 0.316 µM
[4] = second compound 1 µM, first compound 1 µM
[5] = second compound 1 µM, first compound 3.16 µM
[6] = second compound 1 µM, first compound 10 µM
[7] = second compound 3.16 µM, first compound 0.0316 µM
[8] = second compound 3.16 µM, first compound 0.1 µM
[9] = second compound 3.16 µM, first compound 0.316 µM
[10] = second compound 3.16 µM, first compound 1 µM
[11] = second compound 3.16 µM, first compound 3.16 µM
[12] = second compound 3.16 µM, first compound 10 µM
[13] = second compound 10 µM, first compound 0.0316 µM
[14] = second compound 10 µM, first compound 0.1 µM
[15] = second compound 10 µM, first compound 0.316 µM
[16] = second compound 10 µM, first compound 1 µM
[17] = second compound 10 µM, first compound 3.16 µM
[18] = second compound 10 µM, first compound 10 µM
[19] = second compound 31.6 µM, first compound 0.0316 µM
[20] = second compound 31.6 µM, first compound 0.1 µM
[21] = second compound 31.6 µM, first compound 0.316 µM
[22] = second compound 31.6 µM, first compound 1 µM
[23] = second compound 31.6 µM, first compound 3.16 µM
[24] = second compound 31.6 µM, first compound 10 µM
[25] = second compound 100 µM, first compound 0.0316 µM
[26] = second compound 100 µM, first compound 0.1 µM
[27] = second compound 100 µM, first compound 0.316 µM
[28] = second compound 100 µM, first compound 1 µM
[29] = second compound 100 µM, first compound 3.16 µM
[30] = second compound 100 µM, first compound 10 µM

Row | Structure (SMILES) | pIC50 (second compound 1 µM) | pIC50 (second compound 3.16 µM) | pIC50 (second compound 10 µM) | pIC50 (second compound 31.6 µM) | pIC50 (second compound 100 µM) | viability, T/C [1] [%] | viability, T/C [2] [%] | viability, T/C [3] [%] | viability, T/C [4] [%] | viability, T/C [5] [%] | viability, T/C [6] [%] | viability, T/C [7] [%] | viability, T/C [8] [%] | viability, T/C [9] [%] | viability, T/C [10] [%] | viability, T/C [11] [%] | viability, T/C [12] [%] | viability, T/C [13] [%] | viability, T/C [14] [%] | viability, T/C [15] [%] | also measured
1 | COc1cc(C)[nH]c(=O)c1CN1CCc2c(Cl)cc(C(OC)C3COC3)c(Cl)c2C1=O (stereo not given) + Cn1nnc2c(C(N)=O)ncn2c1=O | < 5.00 | < 5.00 | < 5.00 | < 5.00 | < 5.00 | 112 | 108 | 109 | 90.8 | 92.7 | 70.4 | 117 | 117 | 110 | 102 | 89.9 | 75.4 | 108 | 109 | 107 | viability, T/C [16]: 100%; viability, T/C [17]: 95%; viability, T/C [18]: 79.1%; viability, T/C [19]: 108%; viability, T/C [20]: 107%; viability, T/C [21]: 107%; viability, T/C [22]: 102%; viability, T/C [23]: 86.5%; viability, T/C [24]: 71.3%; viability, T/C [25]: 92.2%; viability, T/C [26]: 91.4%; viability, T/C [27]: 81.2%; viability, T/C [28]: 81.4%; viability, T/C [29]: 81.7%; viability, T/C [30]: 72.3%
2 | Cc1cc(C)c(CNC(=O)c2cc(-c3ccc(CN4CCOCC4)cc3)cc3c2cnn3C2CCCC2)c(=O)[nH]1 + Cn1nnc2c(C(N)=O)ncn2c1=O | 6.15 | 6.06 | 6.26 | 6.12 | 6.70 | 93.8 | 79.2 | 60.2 | 44.8 | 29.3 | 9.14 | 85.7 | 78.6 | 64 | 49.8 | 27.2 | 12.2 | 88.7 | 58.5 | 61.8 | viability, T/C [16]: 46.8%; viability, T/C [17]: 26.6%; viability, T/C [18]: 13.3%; viability, T/C [19]: 53.8%; viability, T/C [20]: 74.6%; viability, T/C [21]: 59.3%; viability, T/C [22]: 44.7%; viability, T/C [23]: 26.3%; viability, T/C [24]: 10.7%; viability, T/C [25]: 58.8%; viability, T/C [26]: 52.3%; viability, T/C [27]: 47%; viability, T/C [28]: 39.8%; viability, T/C [29]: 25.2%; viability, T/C [30]: 8.6%
3 | [2H]c1nc(C)nc([2H])c1-c1cc(NC[C@@H](C)c2cccc3c(C(=O)NC)ccnc23)ncn1 + Cn1nnc2c(C(N)=O)ncn2c1=O | < 5.00 | < 5.00 | < 5.00 | < 5.00 | < 5.00 | 98.1 | 98.7 | 101 | 101 | 86.8 | 67.6 | 106 | 104 | 95.4 | 106 | 88.8 | 77.2 | 104 | 103 | 106 | viability, T/C [16]: 101%; viability, T/C [17]: 89.3%; viability, T/C [18]: 71.5%; viability, T/C [19]: 91.8%; viability, T/C [20]: 55.8%; viability, T/C [21]: 91.7%; viability, T/C [22]: 95.5%; viability, T/C [23]: 89.2%; viability, T/C [24]: 50.1%; viability, T/C [25]: 69.5%; viability, T/C [26]: 76.9%; viability, T/C [27]: 70.4%; viability, T/C [28]: 66.2%; viability, T/C [29]: 65.1%; viability, T/C [30]: 58.3%
